Where a SMILES comes first, the peptide text is derived from it.

The nature of the data set: Stability of cell-penetrating peptides in simulated gastric and intestinal fluid (HPLC/MS). The format is in vitro ADME. As for the experimental part: Both CPPs (1 mg/mL in water) were diluted 1:1 (v/v) with either simulated gastric fluid or simulated intestinal fluid and incubated at 37° C. under constant shaking as described in the art. After 0, 15, 30 and 60 min, the samples were analyzed by HPLC/MS in order to detect the recovery of intact CPP and were compared in relation with the initial solution. • Cytotoxicity Assays • Cell Cultivation

Consider `N=C(N)NCCC[C@@H]1NC(=O)[C@H](CS)NC(=O)[C@H](CCCNC(=N)N)NC(=O)[C@H](CCCNC(=N)N)NC(=O)[C@H](CCCNC(=N)N)NC(=O)[C@H](CCCNC(=N)N)NC(=O)[C@H](CCCNC(=N)N)NC(=O)[C@H](CCCNC(=N)N)NC(=O)[C@H](CCCNC(=N)N)NC(=O)[C@H](CCCNC(=N)N)NC1=O` [cyclic CPP] (cyclo(RRRRRRRRRC); ring closure inferred), for which, for the setting “over one hour”, the “stability in intestinal fluid” value was “only a moderate loss” and the “stability in simulated gastric fluid” value is listed as “high stability”. Moreover, the remaining at 1 h, 0.5 mg/mL (simulated intestinal fluid, after one hour, 37° C., read-out: intact CPP) is 47.3%.
